Assay results taken from publication PMC12696368, “Ancestral Chaperonins Provide the First Structural Glimpse into Early Multimeric Protein Evolution” (Molecular Biology and Evolution, 2025).

What was measured:
Test in all cases: phosphate release (BIOMOL GREEN), […]-60 °C
Type in all cases: biochemical
Conditions in all cases: 0.5 mM ATP, 5 mM MgCl2, 150 mM KCl, 50 mM HEPES pH 7.4
ACIII = target: T1, ACIII (synthetic construct, UniProt Z9ZN04QL74)
T1 construct: ancestral reconstruction, C-terminal His-tag, expressed in E. coli BL21 (DE3); eight-subunit double rings
T1 sequence (Z9ZN04QL74 1-518): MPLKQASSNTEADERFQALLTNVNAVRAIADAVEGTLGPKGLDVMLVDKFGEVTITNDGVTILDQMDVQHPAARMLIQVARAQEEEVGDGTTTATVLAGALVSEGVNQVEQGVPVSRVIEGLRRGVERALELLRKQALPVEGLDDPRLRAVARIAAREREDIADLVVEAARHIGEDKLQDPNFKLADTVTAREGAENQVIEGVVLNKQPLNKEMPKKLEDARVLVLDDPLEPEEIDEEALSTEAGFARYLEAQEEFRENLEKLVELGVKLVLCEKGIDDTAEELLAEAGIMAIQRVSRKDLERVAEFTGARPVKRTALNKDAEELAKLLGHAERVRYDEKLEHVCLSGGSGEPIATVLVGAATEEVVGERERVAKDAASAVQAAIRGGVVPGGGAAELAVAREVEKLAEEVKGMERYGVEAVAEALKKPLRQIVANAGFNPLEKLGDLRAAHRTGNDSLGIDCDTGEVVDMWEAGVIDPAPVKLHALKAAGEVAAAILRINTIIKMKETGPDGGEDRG

AFCB = target: T2, AFCB (synthetic construct, UniProt Z9BU06U866)
T2 construct: ancestral reconstruction, C-terminal His-tag, expressed in E. coli BL21 (DE3); 7-subunit double rings

ACI = target: T3, ACI (synthetic construct, UniProt Z9T0T8YL69)
T3 construct: ancestral reconstruction, C-terminal His-tag, expressed in E. coli BL21 (DE3); single heptameric ring

E. coli GroEL = target: T4, E. coli GroEL (Escherichia coli, UniProt P0A6F5)
T4 construct: recombinant, expressed and purified as the ancestral proteins (C-terminal His-tag, E. coli BL21 (DE3)); no GroES; double ring of two seven-subunit rings
T4 sequence (P0A6F5 2-548): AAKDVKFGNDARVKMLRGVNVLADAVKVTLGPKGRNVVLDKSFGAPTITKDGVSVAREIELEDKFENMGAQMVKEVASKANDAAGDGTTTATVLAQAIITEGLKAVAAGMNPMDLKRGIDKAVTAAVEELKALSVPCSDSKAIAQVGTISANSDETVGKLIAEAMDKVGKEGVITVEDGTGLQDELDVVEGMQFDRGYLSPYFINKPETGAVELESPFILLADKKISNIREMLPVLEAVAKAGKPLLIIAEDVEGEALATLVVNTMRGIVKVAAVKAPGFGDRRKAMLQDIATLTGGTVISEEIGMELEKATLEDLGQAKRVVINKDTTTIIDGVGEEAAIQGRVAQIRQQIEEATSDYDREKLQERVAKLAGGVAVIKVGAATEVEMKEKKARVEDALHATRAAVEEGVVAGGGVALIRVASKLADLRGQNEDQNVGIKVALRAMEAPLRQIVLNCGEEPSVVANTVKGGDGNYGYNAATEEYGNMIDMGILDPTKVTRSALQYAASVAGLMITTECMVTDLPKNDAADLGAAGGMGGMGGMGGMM

Nc1ncnc2c1ncn2[C@@H]1O[C@H](COP(=O)(O)OP(=O)(O)OP(=O)(O)O)[C@@H](O)[C@H]1O [ATP]
phosphate release (BIOMOL GREEN), 30-60 °C (ACIII): E. coli GroEL, ACI and ACIII exhibited similar hydrolysis patterns | phosphate release (BIOMOL GREEN), 30-60 °C (AFCB): showed the highest rate of ATP hydrolysis, followed by AFCB | phosphate release (BIOMOL GREEN), 30-60 °C (ACI): E. coli GroEL, ACI and ACIII exhibited similar hydrolysis patterns | phosphate release (BIOMOL GREEN), 30-60 °C (E. coli GroEL): E. coli GroEL, ACI and ACIII exhibited similar hydrolysis patterns
